Calls of active or inactive are those of the source. No cut-off for these calls is given here.
Tests used:
[1] = target: T1, Activin receptor type-1-like (Mus musculus) (UniProt Q61288); assay: Inhibition of BMP9-stimulated ALK1 in mouse C2C12 cells assessed as decrease in p38 phosphorylation at 0.1 to 10 uM pretreated for 2 hrs followed by BMP9-stimulation after 30 mins by western blot analysis; type: cell-based
T1 sequence (whole entry): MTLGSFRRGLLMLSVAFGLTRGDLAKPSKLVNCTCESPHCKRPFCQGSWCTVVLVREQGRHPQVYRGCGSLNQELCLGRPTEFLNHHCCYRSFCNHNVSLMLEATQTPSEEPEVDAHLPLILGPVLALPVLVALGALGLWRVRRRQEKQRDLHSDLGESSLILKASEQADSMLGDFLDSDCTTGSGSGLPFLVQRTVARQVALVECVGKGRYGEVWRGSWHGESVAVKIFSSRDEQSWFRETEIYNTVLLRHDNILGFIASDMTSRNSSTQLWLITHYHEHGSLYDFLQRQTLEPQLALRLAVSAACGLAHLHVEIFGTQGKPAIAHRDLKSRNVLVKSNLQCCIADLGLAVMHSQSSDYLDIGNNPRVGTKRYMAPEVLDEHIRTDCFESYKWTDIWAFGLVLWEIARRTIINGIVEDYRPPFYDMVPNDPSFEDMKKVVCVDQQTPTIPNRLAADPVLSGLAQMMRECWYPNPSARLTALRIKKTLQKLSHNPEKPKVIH

[2] = target: Dual specificity mitogen-activated protein kinase kinase 6 (Homo sapiens) (UniProt P52564); assay: Inhibition of human MKK6 at 1 uM using p38a as substrate in presence of [gamma-33P]-ATP by scintillation counting method relative to control
TGF-beta receptor type-1 [3] = target: T2, TGF-beta receptor type-1 (Mus musculus, UniProt Q64729); assay: Inhibition of ALK5 in mouse C2C12 cells assessed as decrease in TGFbeta1-induced Smad1/5 phosphorylation at 10 uM by Western blot method; type: cell-based
T2 sequence (Q64729 whole entry): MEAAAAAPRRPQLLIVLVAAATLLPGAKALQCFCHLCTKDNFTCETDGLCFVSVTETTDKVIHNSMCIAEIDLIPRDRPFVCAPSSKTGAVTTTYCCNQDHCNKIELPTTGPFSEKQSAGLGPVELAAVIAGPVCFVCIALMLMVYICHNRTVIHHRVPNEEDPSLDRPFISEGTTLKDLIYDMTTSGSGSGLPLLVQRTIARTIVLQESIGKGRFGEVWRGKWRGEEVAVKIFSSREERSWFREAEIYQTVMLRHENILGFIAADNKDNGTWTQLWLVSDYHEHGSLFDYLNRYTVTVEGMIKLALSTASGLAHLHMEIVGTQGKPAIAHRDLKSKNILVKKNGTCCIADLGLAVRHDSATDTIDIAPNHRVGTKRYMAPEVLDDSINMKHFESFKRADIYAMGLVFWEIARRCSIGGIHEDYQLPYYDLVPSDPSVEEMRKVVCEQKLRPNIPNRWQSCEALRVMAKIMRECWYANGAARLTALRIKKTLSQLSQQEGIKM

HUVEC [4] = assay: Angiogenic activity in HUVEC assessed as increase in vessel areas at 2 to 50 uM by microfluidic chip based 3D angiogenesis assay; type: functional, cell-based; conditions: Homo sapiens
TGF-beta receptor type-1 [5] = target: TGF-beta receptor type-1 (Homo sapiens, UniProt P36897); assay: Inhibition of human ALK5 using casein as substrate in presence of 10 uM ATP by radiometric kinase assay
[6] = target: T3, Activin receptor type-1-like (Homo sapiens, UniProt P37023); assay: Inhibition of human ALK1 using casein as substrate in presence of 10 uM ATP by radiometric kinase assay
HUVEC [7] = assay: Angiogenic activity in HUVEC assessed as increase in sprout length at 2 to 50 uM by microfluidic chip based 3D angiogenesis assay; type: functional, cell-based; conditions: Homo sapiens
[8] = target: T1, Activin receptor type-1-like (Mus musculus); assay: Inhibition of ALK1 in mouse C2C12 cells assessed as downregulation of BMP9-induced Id1 protein levels at 10 uM pretreated for 2 hrs followed by BMP9-stimulation after 30 mins by western blot analysis; type: cell-based
MDA-MB-231 = assay: Antiproliferative activity against human MDA-MB-231 cells up to 100 uM after 72 hrs by CellTiter 96 non-radioactive cell proliferation assay; type: cell-based; conditions: mda-mb-231, 72 h
[9] = target: Receptor-type tyrosine-protein kinase FLT3 (Homo sapiens) (UniProt P36888); conditions: 1 uM
HUVEC [10] = assay: Angiogenic activity in HUVEC assessed as increase in angiogenic sprouting in presence of recombinant human VEGF165 by microfluidic chip based 3D angiogenesis assay; type: functional, cell-based
[11] = target: T1, Activin receptor type-1-like (Mus musculus); assay: Inhibition of BMP9-stimulated ALK1 in mouse C2C12 cells assessed as decrease in AKT phosphorylation at S473 at 0.1 to 10 uM pretreated for 2 hrs followed by BMP9-stimulation after 30 mins by western blot analysis; type: cell-based
TGF-beta receptor type-1 [12] = target: T2, TGF-beta receptor type-1; assay: Inhibition of ALK5 in mouse C2C12 cells assessed as decrease in TGFbeta1-induced Smad2/3 phosphorylation at 0.1 to 10 uM by Western blot method; type: cell-based
[13] = target: T4, Vascular endothelial growth factor receptor 2 (Homo sapiens, UniProt P35968); assay: Inhibition of human KDR using poly[Glu:Tyr] (4:1) as substrate in presence of [gamma-33P]-ATP by scintillation counting method
[14] = target: T3, Activin receptor type-1-like; conditions: 1 uM
Description: Inhibition of ALK1 in human A375 cells assessed as decrease in MEK1/2 phosphorylation at 1 uM by western blot analysis

[15] = target: T1, Activin receptor type-1-like (Mus musculus); assay: Inhibition of BMP9-stimulated ALK1 in mouse C2C12 cells assessed as reduction in Smad1/5 phosphorylation at 10 uM pretreated for 2 hrs followed by BMP9-stimulation after 30 mins by western blot analysis relative to control; type: cell-based
[16] = target: T1, Activin receptor type-1-like (Mus musculus); assay: Inhibition of BMP9-stimulated ALK1 in mouse C2C12 cells assessed as decrease in MEK phosphorylation at 0.1 to 10 uM pretreated for 2 hrs followed by BMP9-stimulation after 30 mins by western blot analysis; type: cell-based
[17] = target: ALK5 (TGF-beta receptor type-1) (Homo sapiens, UniProt P36897); assay: Inhibition of human ALK5 at 10 uM using casein as substrate in presence of 200 uM ATP by radiometric kinase assay relative to control; conditions: human ALK5 kinase (TGF-beta receptor type-1), probe casein
[18] = target: T3, Activin receptor type-1-like; conditions: 1 uM; remark: listed apart in the source
Description: Inhibition of human ALK1 at 1 uM using casein as substrate in presence of [gamma-33P]-ATP by scintillation counting method relative to control

[19] = target: Bone morphogenetic protein receptor type-1A (Homo sapiens, UniProt P36894); assay: Inhibition of human ALK3 using casein as substrate in presence of 10 uM ATP by radiometric kinase assay
[20] = target: T3, Activin receptor type-1-like; assay: Inhibition of human ALK1 using casein as substrate in presence of 200 uM ATP by radiometric kinase assay
[21] = target: T5, Vascular endothelial growth factor receptor 3 (Homo sapiens, UniProt P35916); conditions: 1 uM
Description: Inhibition of human FLT4 at 1 uM using poly[Glu:Tyr] (4:1) as substrate in presence of [gamma-33P]-ATP by scintillation counting method relative to control

[22] = target: Bone morphogenetic protein receptor type-1B (Homo sapiens, UniProt O00238); assay: Inhibition of human ALK6 using casein as substrate in presence of 10 uM ATP by radiometric kinase assay
[23] = target: T5, Vascular endothelial growth factor receptor 3; assay: Inhibition of human FLT4 using poly[Glu:Tyr] (4:1) as substrate in presence of [gamma-33P]-ATP by scintillation counting method
Activin receptor type-1B = Activin receptor type-1B (Homo sapiens, UniProt P36896); assay: Inhibition of human ALK4 using casein as substrate in presence of 10 uM ATP by radiometric kinase assay
Activin receptor type-1 [24] = target: T6, Activin receptor type-1 (Homo sapiens, UniProt Q04771); assay: Inhibition of human ALK2 using casein as substrate in presence of 10 uM ATP by radiometric kinase assay
HUVEC [25] = assay: Angiogenic activity in HUVEC assessed as increase in vascular endothelial tube formation incubated for 6 hrs measured every 3 hrs by matrigel based light microscopic analysis; type: functional, cell-based; conditions: Homo sapiens
[26] = target: T1, Activin receptor type-1-like (Mus musculus); assay: Inhibition of ALK1 in mouse C2C12 cells assessed as downregulation of BMP9-induced Id1 mRNA levels at 10 uM pretreated for 2 hrs followed by BMP9-stimulation after 30 mins by RT-PCR analysis; type: cell-based
HUVEC [27] = assay: Angiogenic activity in HUVEC assessed as increase in angiogenic sprouting at 2 to 50 uM by microfluidic chip based 3D angiogenesis assay; type: functional, cell-based; conditions: Homo sapiens
[28] = target: T1, Activin receptor type-1-like (Mus musculus); assay: Inhibition of BMP9-stimulated ALK1 in mouse C2C12 cells assessed as decrease in ERK1/2 phosphorylation at 0.1 to 10 uM pretreated for 2 hrs followed by BMP9-stimulation after 30 mins by western blot analysis; type: cell-based
[29] = target: T3, Activin receptor type-1-like; assay: Inhibition of human ALK1 using casein as substrate in presence of [gamma-33P]-ATP by scintillation counting method
[30] = target: ALK4 (activin receptor type-1B) (Homo sapiens, UniProt P36896); assay: Inhibition of human ALK4 at 10 uM using casein as substrate in presence of 200 uM ATP by radiometric kinase assay relative to control; conditions: human ALK4 kinase (activin receptor type-1B), probe casein
[31] = target: ALK3 (bone morphogenetic protein receptor type-1A) (Homo sapiens, UniProt P36894); assay: Inhibition of human ALK3 at 10 uM using casein as substrate in presence of 200 uM ATP by radiometric kinase assay relative to control; conditions: probe casein
[32] = target: Dual specificity mitogen-activated protein kinase kinase 6 (Homo sapiens, UniProt P52564); assay: Inhibition of human MKK6 using p38a as substrate in presence of [gamma-33P]-ATP by scintillation counting method
[33] = target: T4, Vascular endothelial growth factor receptor 2; conditions: 1 uM
Description: Inhibition of human KDR at 1 uM using poly[Glu:Tyr] (4:1) as substrate in presence of [gamma-33P]-ATP by scintillation counting method relative to control

[34] = target: ALK6 (bone morphogenetic protein receptor type-1B) (Homo sapiens, UniProt O00238); assay: Inhibition of human ALK6 at 10 uM using casein as substrate in presence of 200 uM ATP by radiometric kinase assay relative to control; conditions: probe casein
[35] = target: T1, Activin receptor type-1-like (Mus musculus); assay: Inhibition of BMP9-stimulated ALK1 in mouse C2C12 cells assessed as reduction in Smad1/5 phosphorylation at 0.1 to 1 uM pretreated for 2 hrs followed by BMP9-stimulation after 30 mins by western blot analysis; type: cell-based
Activin receptor type-1 [36] = target: T6, Activin receptor type-1; assay: Inhibition of human ALK2 using casein as substrate in presence of 200 uM ATP by radiometric kinase assay

T3 sequence (P37023 whole entry): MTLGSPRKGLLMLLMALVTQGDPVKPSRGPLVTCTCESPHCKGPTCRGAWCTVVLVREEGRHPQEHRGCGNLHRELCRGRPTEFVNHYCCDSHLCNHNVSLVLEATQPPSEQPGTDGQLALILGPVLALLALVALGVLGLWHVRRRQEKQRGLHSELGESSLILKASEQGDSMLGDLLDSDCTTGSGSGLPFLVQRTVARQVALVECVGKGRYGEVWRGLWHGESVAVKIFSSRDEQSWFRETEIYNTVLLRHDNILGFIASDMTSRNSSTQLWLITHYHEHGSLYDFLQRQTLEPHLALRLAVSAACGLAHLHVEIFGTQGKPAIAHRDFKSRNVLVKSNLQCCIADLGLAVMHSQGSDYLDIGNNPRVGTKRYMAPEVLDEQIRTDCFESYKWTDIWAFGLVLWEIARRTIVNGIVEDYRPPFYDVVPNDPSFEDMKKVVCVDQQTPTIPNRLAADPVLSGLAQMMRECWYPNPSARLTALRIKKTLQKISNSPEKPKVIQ
T6 sequence (Q04771 whole entry): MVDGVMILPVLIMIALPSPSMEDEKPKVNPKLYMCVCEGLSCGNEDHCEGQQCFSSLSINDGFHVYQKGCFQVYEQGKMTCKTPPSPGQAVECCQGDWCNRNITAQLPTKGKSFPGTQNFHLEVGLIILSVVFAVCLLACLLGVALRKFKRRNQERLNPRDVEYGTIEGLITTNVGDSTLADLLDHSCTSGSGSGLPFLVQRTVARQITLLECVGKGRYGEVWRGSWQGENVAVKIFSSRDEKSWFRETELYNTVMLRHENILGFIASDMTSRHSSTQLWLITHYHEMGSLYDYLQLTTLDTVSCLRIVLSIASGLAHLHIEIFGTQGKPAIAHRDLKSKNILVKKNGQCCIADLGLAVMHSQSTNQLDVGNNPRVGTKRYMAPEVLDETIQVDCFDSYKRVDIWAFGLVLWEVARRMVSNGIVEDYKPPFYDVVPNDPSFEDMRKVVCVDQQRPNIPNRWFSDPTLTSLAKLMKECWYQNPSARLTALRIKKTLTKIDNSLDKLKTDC
T4 sequence (P35968 whole entry): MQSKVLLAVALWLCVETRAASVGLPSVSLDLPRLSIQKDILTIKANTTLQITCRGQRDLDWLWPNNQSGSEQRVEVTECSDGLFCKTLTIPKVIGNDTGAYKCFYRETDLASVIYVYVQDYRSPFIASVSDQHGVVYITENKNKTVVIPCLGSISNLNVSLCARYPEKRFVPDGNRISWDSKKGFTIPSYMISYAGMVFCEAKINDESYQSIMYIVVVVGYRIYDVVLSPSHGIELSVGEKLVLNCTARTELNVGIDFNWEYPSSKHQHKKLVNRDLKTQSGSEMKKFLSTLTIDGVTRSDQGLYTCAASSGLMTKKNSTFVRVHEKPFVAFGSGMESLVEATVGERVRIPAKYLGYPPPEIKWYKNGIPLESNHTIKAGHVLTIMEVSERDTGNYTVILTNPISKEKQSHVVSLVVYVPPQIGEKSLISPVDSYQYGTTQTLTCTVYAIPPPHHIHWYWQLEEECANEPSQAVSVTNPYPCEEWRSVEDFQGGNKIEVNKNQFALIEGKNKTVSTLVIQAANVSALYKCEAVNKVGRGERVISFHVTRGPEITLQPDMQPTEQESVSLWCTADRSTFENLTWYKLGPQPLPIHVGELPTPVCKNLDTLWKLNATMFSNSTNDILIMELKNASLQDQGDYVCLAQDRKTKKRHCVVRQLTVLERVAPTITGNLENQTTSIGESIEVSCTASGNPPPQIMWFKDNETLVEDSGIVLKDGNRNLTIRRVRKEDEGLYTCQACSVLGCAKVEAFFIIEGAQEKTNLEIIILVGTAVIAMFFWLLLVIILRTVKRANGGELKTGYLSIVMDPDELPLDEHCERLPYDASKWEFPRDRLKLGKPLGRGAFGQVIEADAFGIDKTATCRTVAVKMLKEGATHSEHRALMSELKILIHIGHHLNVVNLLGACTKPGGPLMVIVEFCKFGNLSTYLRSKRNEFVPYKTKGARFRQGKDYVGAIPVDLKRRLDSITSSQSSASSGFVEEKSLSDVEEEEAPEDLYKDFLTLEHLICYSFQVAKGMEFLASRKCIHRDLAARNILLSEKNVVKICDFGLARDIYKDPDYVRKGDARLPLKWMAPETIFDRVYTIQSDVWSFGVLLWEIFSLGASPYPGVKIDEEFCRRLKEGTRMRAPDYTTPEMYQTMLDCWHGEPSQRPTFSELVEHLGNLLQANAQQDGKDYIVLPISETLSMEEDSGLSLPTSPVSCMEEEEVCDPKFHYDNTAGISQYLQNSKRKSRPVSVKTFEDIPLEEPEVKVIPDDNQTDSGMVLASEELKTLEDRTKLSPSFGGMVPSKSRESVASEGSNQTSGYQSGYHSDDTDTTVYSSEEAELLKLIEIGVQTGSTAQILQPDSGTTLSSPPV
T5 sequence (P35916 whole entry): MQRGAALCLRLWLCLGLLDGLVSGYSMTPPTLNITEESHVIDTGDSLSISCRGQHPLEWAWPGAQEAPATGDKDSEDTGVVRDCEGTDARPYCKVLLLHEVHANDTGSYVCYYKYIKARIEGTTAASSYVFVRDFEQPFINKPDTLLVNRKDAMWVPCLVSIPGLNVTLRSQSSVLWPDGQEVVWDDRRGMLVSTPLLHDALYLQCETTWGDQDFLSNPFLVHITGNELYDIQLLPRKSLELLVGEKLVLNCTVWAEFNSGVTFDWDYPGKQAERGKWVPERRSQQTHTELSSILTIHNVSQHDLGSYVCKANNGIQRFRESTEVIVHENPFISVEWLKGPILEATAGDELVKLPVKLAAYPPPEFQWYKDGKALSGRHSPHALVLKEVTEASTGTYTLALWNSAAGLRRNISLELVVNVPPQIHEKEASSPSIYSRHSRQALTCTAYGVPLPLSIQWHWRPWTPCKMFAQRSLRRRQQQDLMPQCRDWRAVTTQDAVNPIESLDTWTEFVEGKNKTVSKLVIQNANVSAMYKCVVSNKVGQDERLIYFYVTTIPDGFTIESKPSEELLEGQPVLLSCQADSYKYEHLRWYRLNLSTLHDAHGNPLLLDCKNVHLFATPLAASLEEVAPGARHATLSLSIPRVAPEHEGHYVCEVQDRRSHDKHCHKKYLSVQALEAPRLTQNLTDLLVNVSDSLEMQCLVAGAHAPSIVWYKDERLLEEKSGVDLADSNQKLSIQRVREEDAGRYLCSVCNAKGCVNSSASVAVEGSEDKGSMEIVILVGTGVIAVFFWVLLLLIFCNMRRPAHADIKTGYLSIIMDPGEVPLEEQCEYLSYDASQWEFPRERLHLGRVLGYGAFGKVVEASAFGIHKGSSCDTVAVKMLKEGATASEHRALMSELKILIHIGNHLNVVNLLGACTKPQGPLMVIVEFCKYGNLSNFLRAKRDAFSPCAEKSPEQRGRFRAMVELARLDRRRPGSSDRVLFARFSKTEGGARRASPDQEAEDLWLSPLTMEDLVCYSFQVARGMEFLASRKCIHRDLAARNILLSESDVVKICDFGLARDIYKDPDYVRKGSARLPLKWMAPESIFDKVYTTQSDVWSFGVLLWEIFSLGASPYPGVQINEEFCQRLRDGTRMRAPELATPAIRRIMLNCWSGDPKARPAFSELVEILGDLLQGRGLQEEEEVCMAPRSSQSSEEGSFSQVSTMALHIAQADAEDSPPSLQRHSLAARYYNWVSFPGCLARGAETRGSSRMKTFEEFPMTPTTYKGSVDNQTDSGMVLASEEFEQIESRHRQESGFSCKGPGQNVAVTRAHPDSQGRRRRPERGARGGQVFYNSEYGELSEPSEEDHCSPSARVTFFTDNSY
Bone morphogenetic protein receptor type-1B, sequence (O00238 whole entry): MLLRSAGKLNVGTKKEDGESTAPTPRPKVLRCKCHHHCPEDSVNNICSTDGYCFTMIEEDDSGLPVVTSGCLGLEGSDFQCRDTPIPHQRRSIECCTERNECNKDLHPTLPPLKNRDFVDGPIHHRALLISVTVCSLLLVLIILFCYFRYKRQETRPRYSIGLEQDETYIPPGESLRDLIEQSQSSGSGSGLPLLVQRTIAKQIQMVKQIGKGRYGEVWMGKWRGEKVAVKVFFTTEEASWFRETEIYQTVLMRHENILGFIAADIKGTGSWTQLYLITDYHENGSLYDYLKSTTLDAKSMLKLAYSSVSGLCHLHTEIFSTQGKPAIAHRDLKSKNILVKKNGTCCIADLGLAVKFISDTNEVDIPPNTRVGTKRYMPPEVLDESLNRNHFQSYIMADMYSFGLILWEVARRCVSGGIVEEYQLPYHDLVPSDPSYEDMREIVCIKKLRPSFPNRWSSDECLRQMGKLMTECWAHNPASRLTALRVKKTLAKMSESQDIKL
ALK6 (bone morphogenetic protein receptor type-1B), sequence (O00238 whole entry): as above
Bone morphogenetic protein receptor type-1A, sequence (P36894 whole entry): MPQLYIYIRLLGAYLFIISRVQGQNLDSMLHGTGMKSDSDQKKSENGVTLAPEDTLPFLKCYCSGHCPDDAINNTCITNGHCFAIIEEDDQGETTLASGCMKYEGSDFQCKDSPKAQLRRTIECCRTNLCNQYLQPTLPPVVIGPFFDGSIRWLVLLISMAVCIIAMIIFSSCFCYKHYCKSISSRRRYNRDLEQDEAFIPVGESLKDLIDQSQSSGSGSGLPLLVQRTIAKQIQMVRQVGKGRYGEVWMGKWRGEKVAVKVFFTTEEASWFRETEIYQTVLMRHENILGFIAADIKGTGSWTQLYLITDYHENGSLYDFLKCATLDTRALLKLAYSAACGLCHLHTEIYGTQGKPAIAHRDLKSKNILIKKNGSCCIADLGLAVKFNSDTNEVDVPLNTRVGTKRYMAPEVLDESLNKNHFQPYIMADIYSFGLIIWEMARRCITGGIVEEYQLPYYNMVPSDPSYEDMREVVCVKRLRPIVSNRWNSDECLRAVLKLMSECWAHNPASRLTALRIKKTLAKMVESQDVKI
ALK3 (bone morphogenetic protein receptor type-1A), sequence (P36894 whole entry): as above

Q: With `COc1cc(O)c2c(c1)CCC[C@H](O)[C@H](O)C(=O)CCC[C@H](C)OC2=O` as the molecule, how does the inhibition [1] read?
A: Its inhibition is “inactive”.

Q: What about the inhibition [2] of the same molecule?
A: Its inhibition is 89%.

Q: And the “inhibition (INH)” value (TGF-beta receptor type-1 [3])?
A: Its value is “Active”.

Q: And the Activity (HUVEC [4])?
A: The Activity was “Active”.

Q: And the IC50 (TGF-beta receptor type-1 [5])?
A: The IC50 was 7210 nM.

Q: What about the IC50 [6] of the same molecule?
A: Its IC50 is 62 nM.

Q: What about the Activity (HUVEC [7]) of the same molecule?
A: The Activity was “Active”.

Q: And the inhibition [8]?
A: Its inhibition is “Active”.

Q: What about the Activity (MDA-MB-231) of the same molecule?
A: Its Activity is “Non-Toxic”.

Q: What about the inhibition [9] of the same molecule?
A: The inhibition was > 80%.

Q: And the Activity (HUVEC [10])?
A: Its Activity is “Dose-dependent effect”.

Q: What about the inhibition [11] of the same molecule?
A: Its inhibition is “inactive”.

Q: What about the “inhibition (INH)” value (TGF-beta receptor type-1 [12]) of the same molecule?
A: The value was “Not Active”.

Q: And the IC50 [13]?
A: The IC50 was 163 nM.

Q: What about the inhibition [14] of the same molecule?
A: Its inhibition is “Active”.

Q: What about the inhibition [15] of the same molecule?
A: The inhibition was 100%.

Q: And the inhibition [16]?
A: The inhibition was “inactive”.

Q: What about the inhibition at 10 µM [17] of the same molecule?
A: Its inhibition at 10 µM is < 40%.

Q: What about the inhibition [18] of the same molecule?
A: Its inhibition is > 80%.

Q: And the IC50 [19]?
A: Its IC50 is 6270 nM.

Q: What about the IC50 [20] of the same molecule?
A: Its IC50 is 1210 nM.

Q: What about the inhibition [21] of the same molecule?
A: Its inhibition is > 80%.

Q: And the IC50 [22]?
A: The IC50 was 727 nM.

Q: And the IC50 [23]?
A: The IC50 was 114 nM.

Q: What about the IC50 (Activin receptor type-1B) of the same molecule?
A: The IC50 was 2760 nM.

Q: What about the IC50 (Activin receptor type-1 [24]) of the same molecule?
A: Its IC50 is 217 nM.

Q: What about the Activity (HUVEC [25]) of the same molecule?
A: The Activity was “Dose-dependent effect”.

Q: And the inhibition [26]?
A: The inhibition was “Active”.

Q: What about the Activity (HUVEC [27]) of the same molecule?
A: The Activity was “Active”.

Q: What about the inhibition [28] of the same molecule?
A: The inhibition was “inactive”.

Q: And the IC50 [29]?
A: Its IC50 is 62 nM.

Q: What about the inhibition at 10 µM [30] of the same molecule?
A: The inhibition at 10 µM was < 40%.

Q: And the inhibition at 10 µM [31]?
A: The inhibition at 10 µM was < 40%.

Q: And the IC50 [32]?
A: Its IC50 is > 10000 nM.

Q: What about the inhibition [33] of the same molecule?
A: The inhibition was > 80%.

Q: And the inhibition at 10 µM [34]?
A: The inhibition at 10 µM was < 40%.

Q: What about the inhibition [35] of the same molecule?
A: The inhibition was “Active”.

Q: What about the IC50 (Activin receptor type-1 [36]) of the same molecule?
A: Its IC50 is 3350 nM.

Q: `C=C1CCC[C@H](C)OC(=O)c2c(O)cc(OC)cc2CCC[C@H](O)[C@@H]1O` was tested. Which inhibition [15] did it give?
A: Its inhibition is 70 to 80%.

Q: And the IC50 [29]?
A: Its IC50 is 1260 nM.

— ChEMBL document CHEMBL3997792, “Identification of the First Selective Activin Receptor-Like Kinase 1 Inhibitor, a Reversible Version of L-783277” (J Med Chem, 2017)
